From ChEMBL document CHEMBL1145783, “Development of an orexin-2 receptor selective agonist, [Ala(11), D-Leu(15)]orexin-B” (Bioorg Med Chem Lett, 2003) come the findings set out here.

For orientation: EC50 means the concentration needed to bring the measured effect to its halfway point.

The assay has as its target T1, Orexin receptor type 2 (Homo sapiens, UniProt O43614).
T1 sequence (O43614 whole entry): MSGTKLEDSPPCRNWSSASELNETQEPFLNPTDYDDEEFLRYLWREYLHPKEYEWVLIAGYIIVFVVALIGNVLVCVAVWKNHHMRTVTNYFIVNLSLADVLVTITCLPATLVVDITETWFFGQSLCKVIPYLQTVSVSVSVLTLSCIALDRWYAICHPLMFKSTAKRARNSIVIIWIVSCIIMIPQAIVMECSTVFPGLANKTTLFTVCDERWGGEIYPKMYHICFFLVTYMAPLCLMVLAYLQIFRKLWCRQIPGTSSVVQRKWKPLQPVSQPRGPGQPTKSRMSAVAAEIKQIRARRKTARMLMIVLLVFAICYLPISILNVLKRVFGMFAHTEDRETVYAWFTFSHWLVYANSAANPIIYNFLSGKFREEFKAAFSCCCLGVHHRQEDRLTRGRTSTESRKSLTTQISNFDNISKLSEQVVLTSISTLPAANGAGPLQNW
As to the kind of experiment: Agonist activity against human orexin 2 receptor; EC50; nM. It counts as functional.
In the case of `CC[C@H](C)[C@H](NC(=O)[C@H](CC(C)C)NC(=O)[C@@H](NC(=O)[C@@H](N)CCSC)[C@@H](C)O)C(=O)NCC(=O)N[C@@H](C)C(=O)N[C@@H](C)C(=O)N[C@@H](Cc1c[nH]cn1)C(=O)N[C@@H](CC(N)=O)C(=O)NCC(=O)N[C@@H](CO)C(=O)N[C@@H](C)C(=O)N[C@@H](CCC(N)=O)C(=O)N[C@@H](CC(C)C)C(=O)N[C@@H](CC(C)C)C(=O)N[C@@H](CCCN=C(N)N)C(=O)N[C@@H](CCC(N)=O)C(=O)N[C@@H](CC(C)C)C(=O)N[C@@H](CCCN=C(N)N)C(=O)NCC(=O)N[C@@H](CCC(N)=O)C(=O)N[C@@H](CC(C)C)C(=O)NCC(=O)N1CCC[C@H]1C(=O)N1CCC[C@@H]1C(=O)NCC(=O)N[C@@H](CO)C(=O)N[C@@H](CCCN=C(N)N)C(N)=O`, the response was half-maximal at 0.15 nM (EC50).
Then H-MTLIGAAHAGSAQLLRQLRGQLGPPGSR-NH2, with 2.3 nM; and `CC[C@H](C)[C@H](NC(=O)[C@H](CC(C)C)NC(=O)[C@@H](NC(=O)[C@@H](N)CCSC)[C@@H](C)O)C(=O)NCC(=O)N[C@@H](C)C(=O)N[C@@H](C)C(=O)N[C@@H](Cc1cnc[nH]1)C(=O)N[C@@H](CC(N)=O)C(=O)NCC(=O)N[C@@H](CO)C(=O)N[C@H](C)C(=O)N[C@@H](CCC(N)=O)C(=O)N[C@@H](CC(C)C)C(=O)N[C@@H](CC(C)C)C(=O)N[C@@H](CCCN=C(N)N)C(=O)N[C@@H](CCC(N)=O)C(=O)N[C@@H](CC(C)C)C(=O)N[C@@H](CCCN=C(N)N)C(=O)NCC(=O)N[C@@H](CCC(N)=O)C(=O)N[C@@H](CC(C)C)C(=O)NCC(=O)N1CCC[C@H]1C(=O)N1CCC[C@H]1C(=O)NCC(=O)N[C@@H](CO)C(=O)N[C@@H](CCCN=C(N)N)C(N)=O`, with 0.26 nM; and `CC[C@H](C)[C@H](NC(=O)[C@H](CC(C)C)NC(=O)[C@@H](NC(=O)[C@@H](N)CCSC)[C@@H](C)O)C(=O)NCC(=O)N[C@@H](C)C(=O)N[C@@H](C)C(=O)N[C@@H](Cc1c[nH]cn1)C(=O)N[C@@H](CC(N)=O)C(=O)NCC(=O)N[C@H](CO)C(=O)N[C@@H](C)C(=O)N[C@@H](CCC(N)=O)C(=O)N[C@@H](CC(C)C)C(=O)N[C@@H](CC(C)C)C(=O)N[C@@H](CCCN=C(N)N)C(=O)N[C@@H](CCC(N)=O)C(=O)N[C@@H](CC(C)C)C(=O)N[C@@H](CCCN=C(N)N)C(=O)NCC(=O)N[C@@H](CCC(N)=O)C(=O)N[C@@H](CC(C)C)C(=O)NCC(=O)N1CCC[C@H]1C(=O)N1CCC[C@H]1C(=O)NCC(=O)N[C@@H](CO)C(=O)N[C@@H](CCCN=C(N)N)C(N)=O`, with 0.46 nM.
In turn, `CC[C@H](C)[C@H](NC(=O)[C@H](CC(C)C)NC(=O)[C@@H](NC(=O)[C@@H](N)CCSC)[C@@H](C)O)C(=O)NCC(=O)N[C@@H](C)C(=O)N[C@@H](C)C(=O)N[C@@H](Cc1cnc[nH]1)C(=O)N[C@@H](CC(N)=O)C(=O)NCC(=O)N[C@@H](CO)C(=O)N[C@@H](C)C(=O)N[C@@H](CCC(N)=O)C(=O)N[C@@H](CC(C)C)C(=O)N[C@@H](CC(C)C)C(=O)N[C@H](CCCN=C(N)N)C(=O)N[C@@H](CCC(N)=O)C(=O)N[C@@H](CC(C)C)C(=O)N[C@@H](CCCN=C(N)N)C(=O)NCC(=O)N[C@@H](CCC(N)=O)C(=O)N[C@@H](CC(C)C)C(=O)NCC(=O)N1CCC[C@H]1C(=O)N1CCC[C@H]1C(=O)NCC(=O)N[C@@H](CO)C(=O)N[C@@H](CCCN=C(N)N)C(N)=O` showed a 50% effective concentration (EC50) of 0.41 nM. This EC50 and that of the molecule before are within 1.5-fold of each other.
The figure for H-MALIGAAHNGSAQLLRQLRGQLGPPGSR-NH2 is 9.7 nM; for H-MTAIGAAHNGSAQLLRQLRGQLGPPGSR-NH2 it is 140 nM; for `CC[C@H](C)[C@H](NC(=O)[C@H](CC(C)C)NC(=O)[C@@H](NC(=O)[C@@H](N)CCSC)[C@@H](C)O)C(=O)NCC(=O)N[C@@H](C)C(=O)N[C@@H](C)C(=O)N[C@@H](Cc1c[nH]cn1)C(=O)N[C@@H](CC(N)=O)C(=O)NCC(=O)N[C@@H](CO)C(=O)N[C@@H](C)C(=O)N[C@@H](CCC(N)=O)C(=O)N[C@@H](CC(C)C)C(=O)N[C@@H](CC(C)C)C(=O)N[C@@H](CCCN=C(N)N)C(=O)N[C@@H](CCC(N)=O)C(=O)N[C@@H](CC(C)C)C(=O)N[C@@H](CCCN=C(N)N)C(=O)N[C@@H](C)C(=O)N[C@@H](CCC(N)=O)C(=O)N[C@@H](CC(C)C)C(=O)NCC(=O)N1CCC[C@H]1C(=O)N1CCC[C@H]1C(=O)NCC(=O)N[C@@H](CO)C(=O)N[C@@H](CCCN=C(N)N)C(N)=O` it is 0.2 nM.
Turning to `CC[C@H](C)[C@H](NC(=O)[C@H](CC(C)C)NC(=O)[C@H](NC(=O)[C@@H](N)CCSC)[C@@H](C)O)C(=O)NCC(=O)N[C@@H](C)C(=O)N[C@@H](C)C(=O)N[C@@H](Cc1cnc[nH]1)C(=O)N[C@@H](CC(N)=O)C(=O)NCC(=O)N[C@@H](CO)C(=O)N[C@@H](C)C(=O)N[C@@H](CCC(N)=O)C(=O)N[C@@H](CC(C)C)C(=O)N[C@@H](CC(C)C)C(=O)N[C@@H](CCCN=C(N)N)C(=O)N[C@@H](CCC(N)=O)C(=O)N[C@@H](CC(C)C)C(=O)N[C@@H](CCCN=C(N)N)C(=O)NCC(=O)N[C@@H](CCC(N)=O)C(=O)N[C@@H](CC(C)C)C(=O)NCC(=O)N1CCC[C@H]1C(=O)N1CCC[C@H]1C(=O)NCC(=O)N[C@@H](CO)C(=O)N[C@@H](CCCN=C(N)N)C(N)=O`, the concentration for a half-maximal effect (EC50) is over 260 nM.
Turning to `CSCC[C@H](N)C(=O)N[C@H](C(=O)N[C@@H](CC(C)C)C(=O)N[C@H](C)C(=O)NCC(=O)N[C@@H](C)C(=O)N[C@@H](C)C(=O)N[C@@H](Cc1c[nH]cn1)C(=O)N[C@@H](CC(N)=O)C(=O)NCC(=O)N[C@@H](CO)C(=O)N[C@@H](C)C(=O)N[C@@H](CCC(N)=O)C(=O)N[C@@H](CC(C)C)C(=O)N[C@@H](CC(C)C)C(=O)N[C@@H](CCCN=C(N)N)C(=O)N[C@@H](CCC(N)=O)C(=O)N[C@@H](CC(C)C)C(=O)N[C@@H](CCCN=C(N)N)C(=O)NCC(=O)N[C@@H](CCC(N)=O)C(=O)N[C@@H](CC(C)C)C(=O)NCC(=O)N1CCC[C@H]1C(=O)N1CCC[C@H]1C(=O)NCC(=O)N[C@@H](CO)C(=O)N[C@@H](CCCN=C(N)N)C(N)=O)[C@@H](C)O`, the EC50 is over 390 nM.
Then `CC[C@H](C)[C@H](NC(=O)[C@H](CC(C)C)NC(=O)[C@@H](NC(=O)[C@@H](N)CCSC)[C@@H](C)O)C(=O)NCC(=O)N[C@@H](C)C(=O)N[C@@H](C)C(=O)N[C@@H](Cc1c[nH]cn1)C(=O)N[C@@H](CC(N)=O)C(=O)NCC(=O)N[C@@H](CO)C(=O)N[C@@H](C)C(=O)N[C@@H](CCC(N)=O)C(=O)N[C@@H](CC(C)C)C(=O)N[C@@H](CC(C)C)C(=O)N[C@@H](CCCN=C(N)N)C(=O)N[C@@H](CCC(N)=O)C(=O)N[C@@H](CC(C)C)C(=O)N[C@@H](CCCN=C(N)N)C(=O)NCC(=O)N[C@@H](CCC(N)=O)C(=O)N[C@@H](CC(C)C)C(=O)NCC(=O)N1CCC[C@H]1C(=O)N1CCC[C@H]1C(=O)N[C@@H](C)C(=O)N[C@@H](CO)C(=O)N[C@@H](CCCN=C(N)N)C(N)=O`, with 0.18 nM.
The figure for H-MTLIGAAHNGSAQLLRQSRGQLGPPGSR-NH2 is 1.2 nM; for H-MTLIGAAHNGSAALLRQLRGQLGPPGSR-NH2 it is 0.13 nM; for H-MTLIGAAHNGSAQLLRALRGQLGPPGSR-NH2 it is 0.23 nM.
The figure for `CC[C@H](C)[C@H](NC(=O)[C@H](CC(C)C)NC(=O)[C@@H](NC(=O)[C@@H](N)CCSC)[C@@H](C)O)C(=O)NCC(=O)N[C@H](C)C(=O)N[C@@H](C)C(=O)N[C@@H](Cc1c[nH]cn1)C(=O)N[C@@H](CC(N)=O)C(=O)NCC(=O)N[C@@H](CO)C(=O)N[C@@H](C)C(=O)N[C@@H](CCC(N)=O)C(=O)N[C@@H](CC(C)C)C(=O)N[C@@H](CC(C)C)C(=O)N[C@@H](CCCN=C(N)N)C(=O)N[C@@H](CCC(N)=O)C(=O)N[C@@H](CC(C)C)C(=O)N[C@@H](CCCN=C(N)N)C(=O)NCC(=O)N[C@@H](CCC(N)=O)C(=O)N[C@@H](CC(C)C)C(=O)NCC(=O)N1CCC[C@H]1C(=O)N1CCC[C@H]1C(=O)NCC(=O)N[C@@H](CO)C(=O)N[C@@H](CCCN=C(N)N)C(N)=O` is 14 nM; for H-MTLIGAAHNGAAQLLRQLRGQLGPPGSR-NH2 it is 1.6 nM.
For the molecule `CC[C@H](C)[C@H](NC(=O)[C@H](CC(C)C)NC(=O)[C@@H](NC(=O)[C@@H](N)CCSC)[C@@H](C)O)C(=O)NCC(=O)N[C@@H](C)C(=O)N[C@@H](C)C(=O)N[C@@H](Cc1c[nH]cn1)C(=O)N[C@@H](CC(N)=O)C(=O)NCC(=O)N[C@@H](CO)C(=O)N[C@@H](C)C(=O)N[C@@H](CCC(N)=O)C(=O)N[C@@H](CC(C)C)C(=O)N[C@@H](CC(C)C)C(=O)N[C@@H](CCCN=C(N)N)C(=O)N[C@@H](CCC(N)=O)C(=O)N[C@@H](CC(C)C)C(=O)N[C@@H](CCCN=C(N)N)C(=O)NCC(=O)N[C@@H](CCC(N)=O)C(=O)N[C@@H](CC(C)C)C(=O)NCC(=O)N1CCC[C@@H]1C(=O)N1CCC[C@H]1C(=O)NCC(=O)N[C@@H](CO)C(=O)N[C@@H](CCCN=C(N)N)C(N)=O`, the response was half-maximal at 0.16 nM (EC50).
The figure for `CC[C@H](C)[C@H](NC(=O)[C@H](CC(C)C)NC(=O)[C@@H](NC(=O)[C@@H](N)CCSC)[C@@H](C)O)C(=O)NCC(=O)N[C@@H](C)C(=O)N[C@@H](C)C(=O)N[C@@H](Cc1c[nH]cn1)C(=O)N[C@@H](CC(N)=O)C(=O)NCC(=O)N[C@@H](CO)C(=O)N[C@@H](C)C(=O)N[C@@H](CCC(N)=O)C(=O)N[C@@H](CC(C)C)C(=O)N[C@@H](CC(C)C)C(=O)N[C@@H](CCCN=C(N)N)C(=O)N[C@@H](CCC(N)=O)C(=O)N[C@@H](CC(C)C)C(=O)N[C@@H](CCCN=C(N)N)C(=O)NCC(=O)N[C@@H](CCC(N)=O)C(=O)N[C@@H](CC(C)C)C(=O)N[C@H](C)C(=O)N1CCC[C@H]1C(=O)N1CCC[C@H]1C(=O)NCC(=O)N[C@@H](CO)C(=O)N[C@@H](CCCN=C(N)N)C(N)=O` is 0.2 nM.
